Laboratory results from patent publication US12161653B2, “Treatment of submental fat” (Allergan Sales, LLC, priority 2011, dated 2024).

Legend:
[1] = In vitro micelle formation; assay type: physicochemical
Description: When secreted into the small intestine, bile acids form micelles with dietary fats to aid in lipolysis and lipid absorption.

caudal lateral fat pads = assay: Fat pad necrosis in Zucker rats after a single injection; assay type: in vivo; conditions: for effectiveness: Zucker rats and clinical studies
Procedure: In the rats study, 8 rats received a single injection into the caudal lateral fat pads of 2.5 mL deoxycholic acid at 1%, 0.5%, 0.25%, or 0.1% concentrations, or 2.5 mL vehicle (0.9% benzyl alcohol in water).

[2] = test system: submental fat (SMF) deposits; assay: Example 2 placebo-controlled clinical study, SMF rating scale; assay type: in vivo, human; conditions: for change from baseline at week 16 compared to placebo in SMF rating scale score: significance (ANCOVA): every 4 weeks, up to 4 treatments
Procedure: A clinical study was conducted to evaluate the effectiveness of various doses of sodium deoxycholate in removing undesired submental fat (SMF) deposits. A multicenter, randomized, double-blind, placebo-controlled, parallel-group comparison of 3 concentrations of sodium deoxycholate (0.5, 1.0, and 2.0 percent w/v) in sterile water with 0.9% benzyl alcohol and placebo was conducted to determine the efficacy of reduction in SMF deposits. Placebo injection consisted of sterile water with 0.9% benzyl alcohol.
All subjects were to have up to 4 treatment sessions at intervals of no less than 4 weeks (±3 days) between treatments.
Eligible subjects were concurrently randomized into one of the following groups: • Placebo injected every 4 weeks for up to 4 treatments • 0.5% w/v sodium deoxycholate injected every 4 weeks for up to 4 treatments • 1.0% w/v sodium deoxycholate injected every 4 weeks for up to 4 treatments • 2.0% w/v sodium deoxycholate injected every 4 weeks for up to 4 treatments
85 subjects were randomized: 21 subjects to the 0.5% w/v sodium deoxycholate group, 20 subjects to the 1.0% w/v sodium deoxycholate group; 22 subjects to the 2.0% w/v sodium deoxycholate (DCA) group; and 22 subjects to the placebo group. 73 subjects completed the study.
Subject selection included males or non-pregnant, non-lactating females aged 25 to 65 years, inclusive, on the date of randomization, with SMF that was considered undesirable by the subject and graded by the investigator as 2 or 3 using the SMF rating scale, and a history of maintenance of a stable body weight, in the judgment of the investigator, for at least 6 months before randomization.

[3] = Phase 1/2 clinical studies with SDI: safety; assay type: in vivo, human
Procedure: (§1) A total of 274 subjects participated in 6 Phase ½ clinical studies that were conducted with SDI. Of these, 3 studies (n=179) evaluated SDI for the treatment of submental fat (SMF). Two studies evaluated SDI for the treatment of superficial lipoma. One study (SDI-08-10) evaluated the histological effects of SDI in subcutaneous abdominal tissue in subjects scheduled to undergo abdominoplasty.
(§2) The most commonly observed adverse events associated with the treatment area include pain, erythema, induration, swelling, bruising, and numbness. Less frequently, pruritus and paresthesia have been reported. […] The pharmacokinetics of SDI is linear, illustrating the predictable overall exposure. Plasma concentrations were transient with peak concentrations observed at approximately 15 to 30 minutes, returning to endogenous deoxycholate levels within 24 hours after dosing.

[4] = Pharmacokinetics of SDI in clinical studies (plasma deoxycholate); assay type: in vivo; conditions: human
Procedure: as §2

submental fat = assay: Earlier clinical studies of SDI for submental fat (SMFRS, SSRS); assay type: in vivo, human
Procedure: as §1
The SMF scale used to assess efficacy in clinical studies with SDI has been validated and shown to be reliable. […] The expected improvement from treatment with SDI is consistent with what patients who desire aesthetic changes would find satisfactory.

submental fat (SMF) = assay: Example 3 phase II placebo-controlled study (CR-SMFRS, PR-SMFRS, PR-SMFIS, MRI, other scales); assay type: in vivo, human; conditions: for number of patients having at least 1-point improvement (CR-SMFRS) vs placebo group: week 16, 24 and 32
Procedure: A clinical study was conducted to evaluate the effectiveness of various doses of sodium deoxycholate in removing undesired submental fat (SMF) deposits. This clinical study was multicenter, randomized, double-blind, placebo-controlled study of sodium deoxycholate injection (“SDI” or alternatively “ATX-101”) versus placebo for the reduction of localized subcutaneous fat in the submental area (SMF) using magnetic resonance imaging (MRI) and a battery of clinician- and subject-reported measurements.
Study Design: FIG. 2 depicts the study Design and Treatment Schema associated with this procedure. This was a multicenter, randomized, double-blind, placebo-controlled study in which approximately 120 subjects received either up to 50 mg SDI, up to 100 mg SDI, or placebo in a 1:1:1 ratio (5 mg/mL:10 mg/mL:placebo) as indicated below, to evaluate the safety and efficacy of fixed concentrations of SDI given in up to 50 0.2-mL injections in up to 6 treatment sessions. No subject received more than 10 mL in any treatment session, nor did any subject undergo more than 6 treatment sessions. The initial 30 subjects were enrolled in a 2:2:1 ratio (i.e., 12, 12 and 6 subjects per group, for the two SDI groups and placebo, respectively) and the remaining subjects were randomized to balance the enrollment (approximately 28, 28, and […] per group for the two SDI groups and placebo, respectively).
To measure changes in SMF volume and thickness, MRI acquisitions were repeated prior to each treatment session and post-treatment (4 and 12 weeks after the last treatment cycle). Before subjects completed each MRI visit, the MRI images were evaluated for acceptability.
Subjects who successfully completed screening and baseline evaluations received up to 50 injections (0.2 mL each for a maximum volume of 10 mL) per treatment session, depending upon size and configuration of the SMF. Treatment was given at 4-week (±5 days) intervals. Study material injection sites were positioned using a 1.0 cm grid, which is designed to achieve an appropriate distribution of injections across the submental area.
Study Material, Dose, and Route of Administration: SDI (sodium deoxycholate injection) was provided in a concentration of 5 mg/mL (0.5%) and 10 mg/mL (1.0%) in 10 mM sodium phosphate, 0.9% (weight per volume [w/v]) sodium chloride, and 0.9% (w/v) benzyl alcohol in water for injection (WFI). Each vial (for single use only) contained at least 2.0 mL of accessible material, accessed by means of sterile syringe and needle through a rubber stopper closure.
Evaluation of Efficacy: The effects of 5 mg/mL SDI and 10 mg/mL SDI transcutaneous injections in the submental area were evaluated relative to placebo by measuring the following: (1) the reduction of fat using Clinician-Reported Submental Fat Rating Scale (CR-SMFRS), Patient-Reported Submental Fat Rating Scale (PR-SMFRS), and Patient-Reported Submental Fat Impact Scale (PR-SMFIS); (2) the volume of SMF using MRI; and (3) the thickness of SMF using MM. The efficacy evaluation criteria included: Clinician-Reported Submental Fat Rating Scale (CR-SMFRS), Patient-Reported Submental Fat Rating Scale (PR-SMFRS), Patient-Reported Submental Fat Impact Scale (PR-SMFIS) scores, and Magnetic resonance imaging (MM).
Other Evaluations: The effects of 5 mg/mL SDI and 10 mg/mL SDI transcutaneous injections in the submental area, relative to placebo, for changes in skin laxity (SLRS), Subject Self Rating Scale (SSRS), and subject-reported outcome measures (Self-Ratings of Attractiveness, Derriford Appearance Scale [DAS], Body Image Quality of Life Inventory [BIQLI]), other Subject-Reported Questions, and Post-treatment Questions) were evaluated. Measurements of the thickness of fat in the submental area were made using calipers. Photographs were taken to document treatment effects. […]

[5] = test system: subcutaneous abdominal tissue; assay: Clinical trial: histological changes, efficacy and safety by concentration; assay type: in vivo, human
Procedure: These findings are consistent with the increased intensity of adverse effects at the higher concentrations and larger volumes administered (0.4 mL/injection) in clinical trials. […] Concentrations at or below 0.25% were not tested, as they are at or below the concentration necessary to form micelles. The formation of micelles is essential for lipolytic activity.
as §1

C[C@H](CCC(=O)[O-])[C@H]1CC[C@H]2[C@@H]3CC[C@@H]4C[C@H](O)CC[C@]4(C)[C@H]3C[C@H](O)[C@]12C.[Na+] [sodium deoxycholate]
minimal concentration at which micelle formation was observed [1]: 0.25 % w/v
effectiveness (caudal lateral fat pads; 0.5% w/v): effective
effectiveness (caudal lateral fat pads; 1.0% w/v): effective
effect compared with vehicle (caudal lateral fat pads; doses at and below 0.25%): no different than vehicle
time points with statistically significant change from baseline in SMF rating scale score compared to placebo ([2]; 0.5% w/v): weeks 8, 12, 16 and 24
change from baseline at week 16 compared to placebo in SMF rating scale score: significance (ANCOVA) ([2]; 0.5% w/v): statistically significant
time points with statistically significant improvement in SMF rating scale score compared to placebo ([2]; 1.0% w/v): weeks 12, 16 and 24
change from baseline at week 16 compared to placebo in SMF rating scale score: significance (ANCOVA) ([2]; 1% w/v): statistically significant
relative effectiveness by visual assessment methods ([2]; 2.0% vs 1.0% or 0.5%): less effective than ATX-101 1.0% or 0.5%
time points with statistically significant improvement in SMF rating scale score compared to placebo ([2]; 2% w/v): only at week 24
change from baseline at week 16 compared to placebo in SMF rating scale score: significance (ANCOVA) ([2]; 2% w/v): not
safety profile across studies ([3]; 0.5% vs 2.0% and 4.0%): better safety profile than the higher concentrations
safety profile across studies ([3]; 1.0% vs 2.0% and 4.0%): better safety profile than the higher concentrations
safety and tolerability ([3]; all concentrations in clinical studies): safe and well tolerated
adverse events ([3]; clinical studies, not systemic): local, transient injection site reactions of mild to moderate intensity
pharmacokinetics (linearity) [4]: linear
time of peak plasma concentrations [4]: 15 to 30 min
time to return to endogenous deoxycholate levels after dosing [4]: ≤ 24 h
SSRS scores (submental fat; 0.5% [0.2 mL/1.0 cm]): significantly better than placebo
change in SMFRS score at Week 16 (submental fat; 0.5% [0.2 mL/1.0 cm]): significantly better than placebo
SSRS scores (submental fat; 1.0% [0.2 mL/1.0 cm]): significantly better than placebo
change in SMFRS score at Week 16 (submental fat; 1.0% [0.2 mL/1.0 cm]): significantly better than placebo
CR-SMFRS change from baseline (FIG. 4) (submental fat (SMF); 0.5%): marked reduction of submental fat as compared with placebo
SMF thickness and volume by MRI (submental fat (SMF); 0.5%): statistically significant reduction
SSRS, patient impact scores, patient impact questionnaire, improvement in appearance of the chin and satisfaction (submental fat (SMF); 0.5%): statistically significant changes
number of patients having at least 1-point improvement (CR-SMFRS) vs placebo group (submental fat (SMF); 0.5%): greater
CR-SMFRS change from baseline (FIG. 4) (submental fat (SMF); 1.0%): marked reduction of submental fat as compared with placebo
SMF thickness and volume by MRI (submental fat (SMF); 1.0%): statistically significant reduction
SSRS, patient impact scores, patient impact questionnaire, improvement in appearance of the chin and satisfaction (submental fat (SMF); 1.0%): statistically significant changes
statistical significance of CR-SMFRS reduction vs placebo (submental fat (SMF); 1.0%): statistically significant at most time points
dose response by CR-SMFRS (submental fat (SMF); 1.0% and 0.5%): good dose response
dose response by PR-SMFRS (submental fat (SMF); 1.0% and 0.5%): good dose response
SMF thickness and volume by MRI, compared with 0.5% (submental fat (SMF); 1.0% vs 0.5%): better dose response and greater reduction
relative effectiveness by CR-SMFRS (submental fat (SMF); 1.0% vs 0.5%): more effective than 0.5%
relative effectiveness by PR-SMFRS (submental fat (SMF); 1.0% vs 0.5%): more effective than 0.5%
number of patients having at least 1-point improvement (CR-SMFRS) vs placebo group (submental fat (SMF); 1.0%): greater
1-grade reduction, CR-SMFRS (submental fat (SMF); 1.0%, week 16 and week 32): Statistically significance was obtained
1-grade reduction, PR-SMFRS (submental fat (SMF); 1.0%, week 16 and week 32): Statistically significance was obtained
2-grade reduction, PR-SMFRS (submental fat (SMF); 1.0%, week 32): Statistically significance was obtained
CR-SMFRS with BMI as a standard (FIG. 18) (submental fat (SMF); ATX-101 treatments): significant submental fat reduction
CR-SMFRS/body weight ratio (submental fat (SMF); FIGS. 20 and 21): decreased significantly

C[C@H](CCC(=O)O)[C@H]1CC[C@H]2[C@@H]3CC[C@@H]4C[C@H](O)CC[C@]4(C)[C@H]3C[C@H](O)[C@]12C [deoxycholic acid]
fat pad necrosis relative to 0.5% (caudal lateral fat pads; 1.0% vs 0.5%, single 2.5 mL injection): approximately 2.5 times
histological changes ([5]; 2.0%): marked necrosis, resulting in lipid lake formation and vessel damage
histological changes ([5]; 4.0%): marked necrosis, resulting in lipid lake formation and vessel damage
